From patent US11008346B2, “Beta-lactamase inhibitors” (priority 2014, dated 2021)
Where two headings read alike, the source gives them in different places.

What was measured:
SHV-5 β-lactamase = molecular target: T1, SHV-5 β-lactamase (Klebsiella pneumoniae, UniProt P0A3M1); experiment: β-lactamase enzyme inhibition, SHV-5; type: biochemical
T1 construct: made in house; host or cells: E. coli BL21(DE3)
In short: (§1)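 Native untagged enzymes expressed in E. coli BL21(DE3) and purified by cation exchange and gel filtration were preincubated with inhibitor for 15 min at 37° C. Hydrolysis was followed for 10 min: nitrocefin (100 μM final, 486 nm) for OXA-1 and p99 AmpC, imipenem (300 nm) for KPC-2, cefotaxime (260 nm) for SHV-5; IC50 from initial rates.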

[1] = tested on: E. coli ESBL4 expressing CTX-M-15; experiment: broth microdilution MIC, E. coli CTX-M-15; type: cell-based; conditions: Fixed CAZ (ceftazidime) 4 μg/mL
In short: (§2)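 CAMHB; strains pre-grown 3-5 h. Test cpd 2-fold dilutions, 32→0.25 μg/mL final, + beta-lactam static 4 μg/mL. CLSI inoculation, 16-20 h at 37° C, visual MIC.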

KPC-2 β-lactamase = molecular target: T2, KPC-2 β-lactamase (Klebsiella pneumoniae, UniProt Q9F663); experiment: β-lactamase enzyme inhibition, KPC-2; type: biochemical
T2 construct: made in house; host or cells: E. coli BL21(DE3)
T2 sequence (Q9F663 25-293, looked up): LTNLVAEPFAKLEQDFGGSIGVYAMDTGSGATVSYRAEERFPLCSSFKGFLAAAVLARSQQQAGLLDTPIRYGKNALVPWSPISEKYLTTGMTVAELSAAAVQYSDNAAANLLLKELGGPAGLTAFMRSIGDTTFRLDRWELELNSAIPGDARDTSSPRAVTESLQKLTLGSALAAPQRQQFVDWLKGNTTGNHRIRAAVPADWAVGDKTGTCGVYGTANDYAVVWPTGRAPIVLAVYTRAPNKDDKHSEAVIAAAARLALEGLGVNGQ
In short: as §1

[2] = tested on: K. pneumoniae A-1797 expressing KPC-2 and VIM-4; experiment: broth microdilution MIC, K. pneumoniae KPC-2 and VIM-4; type: cell-based; conditions: Fixed Mero (meropenem) 4 μg/mL
In short: as §2

p99 AmpC β-lactamase = molecular target: T3, p99 AmpC β-lactamase (Enterobacter cloacae, UniProt P05364); experiment: β-lactamase enzyme inhibition, p99 AmpC; type: biochemical
T3 construct: made in house; host or cells: E. coli BL21(DE3)
T3 sequence (P05364 21-381): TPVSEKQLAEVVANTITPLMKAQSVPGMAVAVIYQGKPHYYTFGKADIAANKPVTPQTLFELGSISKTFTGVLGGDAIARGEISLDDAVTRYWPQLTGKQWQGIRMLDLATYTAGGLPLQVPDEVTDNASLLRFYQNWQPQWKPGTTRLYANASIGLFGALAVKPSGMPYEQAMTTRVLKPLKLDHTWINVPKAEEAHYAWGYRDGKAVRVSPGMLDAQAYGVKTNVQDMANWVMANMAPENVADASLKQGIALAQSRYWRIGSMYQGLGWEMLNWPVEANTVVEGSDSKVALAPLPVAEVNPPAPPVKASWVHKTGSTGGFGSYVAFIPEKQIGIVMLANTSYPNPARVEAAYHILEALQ
In short: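 Native untagged E. cloacae p99 AmpC was expressed in E. coli BL21(DE3) and purified by cation exchange and gel filtration. Enzyme was preincubated with inhibitor at 37°C for 15 min.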

[3] = tested on: E. cloacae 144200 expressing Class C P99 AmpC; experiment: broth microdilution MIC, E. cloacae P99; type: cell-based; conditions: Fixed CAZ (ceftazidime) 4 μg/mL
In short: as §2

OXA-1 β-lactamase = molecular target: T4, OXA-1 β-lactamase (Escherichia coli, UniProt P13661); experiment: β-lactamase enzyme inhibition, OXA-1; type: biochemical; conditions: Nitrocefin 100 μM, 486 nm; 15 min at 37° C. preincubation; read-out: IC50 OXA-1 (Class D)
T4 construct: made in house; host or cells: E. coli BL21(DE3)
T4 sequence (P13661 26-276): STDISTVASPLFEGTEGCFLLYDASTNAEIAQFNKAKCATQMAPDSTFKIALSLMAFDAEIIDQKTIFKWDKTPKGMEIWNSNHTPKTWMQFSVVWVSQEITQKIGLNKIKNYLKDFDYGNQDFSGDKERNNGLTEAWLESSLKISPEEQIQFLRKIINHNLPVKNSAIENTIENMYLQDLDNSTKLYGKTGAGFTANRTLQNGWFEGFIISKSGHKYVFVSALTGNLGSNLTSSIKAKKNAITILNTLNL
Description: For SHV-5, Kpc-2, p99AmpC and OXA-1 β-lactamases, E. coli BL21(DE3) bacterial cells carrying expression plasmids (expressed as native untagged proteins) for the individual β-lactamases were grown in 1 L of Superbroth (Teknova Inc. Hollister, Calif.) supplemented with 100 μg/ml kanamycin selection and 1×5052 (0.5% glycerol, 0.05% glucose and 0.2% α-lactose) at 35° C. for 18-20 hours. Cells were harvested by centrifugation (4,000×g, 4° C., 20 min), resuspended in 50 ml of 10 mM HEPES pH 7.5 ( 1/20 of the initial volume). The cells were lysed by sonication (5 pulses of 45 seconds) at 45 W on ice. The lysates were clarified by centrifugation at 10,000×g for 40 minutes at 4° C. Samples were diluted 5-fold in 50 mM sodium acetate pH 5.0, stored overnight at 4° C., after which they were centrifuged at 10,000×g for 30 minutes to clarify, and filtered through 0.45 μm filters. The samples were loaded onto a 5 ml Capto S sepharose cation exchange column (GE Healthcare) pre-equilibrated with 50 mM sodium acetate pH 5.0. The column was washed with 5 column volumes of 50 mM sodium acetate pH 5.0 to wash out unbound protein and a linear gradient of NaCl (0 to 500 mM) was used to elute the protein (over 16 CV) from the column. Fractions were assayed for […] activity using Centa (Calbiochem, Gibbstown, N.J.) or Nitrocefin (EMD Millipore chemicals, Darmstadt, Germany) as a reporter β-lactamase substrate for activity in the isolated fractions. Active fractions were pooled, concentrated and further purified by gel filtration chromatography on a Superdex 75 prep grade gel filtration column (GE Healthcare, Piscataway, N.J.) pre-equilibrated in 50 mM Hepes pH 7.5, 150 mM NaCl. Active fractions were pooled, concentrated, and quantitated by BCA protein determination (Thermo Scientific, Rockford, Ill.), dialyzed into PBS and frozen at −80° C. in 20% glycerol until use.
An equal volume of diluted enzyme stock was added, and the plates were incubated at 37° C. for 15 min. Nitrocefin was used as substrate for p99 AmpC, VIM-2 and OXA-1 and dispensed into each well at a final concentration of 100 μM. Absorbance at 486 nm was immediately monitored for 10 min using a Biotek Powerwave XS2 microplate spectrophotometer using the GEN5 software package (Biotek Instruments, Winooski Vt.). In an analogous fashion, imipenem was used as substrate for KPC-2 and Cefotaxime was used for SHV-5, while changes in absorbance upon hydrolysis of the β-lactam ring were monitored at 300 nm and 260 nm respectively in UV-transparent 96-well microtiter assay plates. Maximum rates of hydrolysis were compared to those in control wells (without inhibitors), and percentages of enzyme inhibition were calculated for each concentration of inhibitor. The concentration of inhibitor needed to reduce the initial rate of hydrolysis of substrate by 50% (IC50) was calculated as the residual activity of β-lactamase at 486 nm using GraFit version 7 kinetics software package (Erithacus Software, Surrey, UK).
Using the methodology described above, examples of the current invention were evaluated for their ability to inhibit β-lactamase enzymes from all four Ambler classifications (A through D). […] NT=Not tested.

[4] = tested on: K. pneumoniae 156319 expressing KPC-3; experiment: broth microdilution MIC, K. pneumoniae KPC-3; type: cell-based; conditions: Fixed Mero (meropenem) 4 μg/mL
In short: as §2

[5] = molecular target: T5, VIM-2 metallo β-lactamase (Pseudomonas aeruginosa, UniProt Q9K2N0); experiment: β-lactamase enzyme inhibition, VIM-2; type: biochemical; conditions: Nitrocefin 100 μM, 486 nm; 15 min at 37° C. preincubation; read-out: IC50 VIM-2 (Class B)
T5 construct: made in house; host or cells: E. coli BL21(DE3)
In short: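 VIM-2 purified by Q sepharose anion exchange (50 mM Hepes pH 7.5, 0-600 mM NaCl gradient, two runs, >90% purity). Enzyme preincubated with inhibitor 15 min at 37° C; nitrocefin 100 μM final, absorbance at 486 nm followed 10 min. IC50 from initial hydrolysis rates versus inhibitor-free controls.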

[6] = imipenem substrate, 300 nm, 15 min at 37° C. preincubation, read-out: IC50 KPC-2 (Class A)

T1 sequence (P0A3M1 22-286): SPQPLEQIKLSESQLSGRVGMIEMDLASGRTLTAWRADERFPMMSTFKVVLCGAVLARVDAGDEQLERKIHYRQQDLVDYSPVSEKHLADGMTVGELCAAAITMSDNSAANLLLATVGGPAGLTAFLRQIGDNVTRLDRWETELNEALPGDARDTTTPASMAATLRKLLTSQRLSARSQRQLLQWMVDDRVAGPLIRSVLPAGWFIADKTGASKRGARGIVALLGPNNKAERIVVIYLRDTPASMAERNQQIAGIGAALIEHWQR

Row | Compound | IC50 (SHV-5 β-lactamase) [nM] | MIC of exemplary compounds in presence of fixed β-lactams, E. coli ESBL4 CTX-M-15 [1] | IC50 (KPC-2 β-lactamase; [6]) [nM] | MIC of exemplary compounds in presence of fixed β-lactams, K.P. A-1797 KPC-2 VIM-4 [2] | IC50 (p99 AmpC β-lactamase) [nM] | MIC of exemplary compounds in presence of fixed β-lactams, E. cl. 144200 p99 AmpC [3] | IC50 (OXA-1 β-lactamase) [nM] | MIC of exemplary compounds in presence of fixed β-lactams, K.P. 156319 KPC-3 [4] | IC50 [5] [nM] | IC50 (KPC-2 β-lactamase) [nM]
1 | O=C(CCC(=O)C(F)(F)F)N[C@H]1Cc2cccc(C(=O)O)c2OB1O [Example 38, (R)-2-Hydroxy-3-(5,5,5-trifluoro-4-oxo-pentanoylamino)-3,4-dihydro-2H-benzo[e][1,2]oxaborinine-8-carboxylicacid] | < 100 | B (B represents the MIC in the presence of between 8 and 32 g/mL of a β-lactamase inhibitor) | 100 to 1000 | B (B represents the MIC in the presence of between 8 and 32 g/mL of a β-lactamase inhibitor) | < 100 | C (C represents the MIC in the presence of ≤4 g/mL of a β-lactamase inhibitor) | < 100 | B (B represents the MIC in the presence of between 8 and 32 g/mL of a β-lactamase inhibitor) | 1000 to 10000 | 
2 | C#CCCC(=O)N[C@H]1Cc2cccc(C(=O)O)c2OB1O [Example 37, (R)-2-Hydroxy-3-pent-4-ynoylamino-3,4-dihydro-2H-benzo[e][1,2]oxaborinine-8-carboxylic acid] | < 100 | C (C represents the MIC in the presence of ≤4 g/mL of a β-lactamase inhibitor) |  | B (B represents the MIC in the presence of between 8 and 32 g/mL of a β-lactamase inhibitor) | < 100 | C (C represents the MIC in the presence of ≤4 g/mL of a β-lactamase inhibitor) | < 100 | C (C represents the MIC in the presence of ≤4 g/mL of a β-lactamase inhibitor) | 1000 to 10000 | < 100
3 | CC(=O)/C=C/C(=O)N[C@H]1Cc2cccc(C(=O)O)c2OB1O [Example 39, (R)-2-Hydroxy-3-(4-oxo-pent-2-enoylamino)-3,4-dihydro-2H-benzo[e][1,2]oxaborinine-8-carboxylic acid] | < 100 | C (C represents the MIC in the presence of ≤4 g/mL of a β-lactamase inhibitor) | < 100 | B (B represents the MIC in the presence of between 8 and 32 g/mL of a β-lactamase inhibitor) | < 100 | C (C represents the MIC in the presence of ≤4 g/mL of a β-lactamase inhibitor) | < 100 | B (B represents the MIC in the presence of between 8 and 32 g/mL of a β-lactamase inhibitor) | 100 to 1000 | 
4 | N#CCCC(=O)N[C@H]1Cc2ccc(F)c(C(=O)O)c2OB1O [Example 46, (R)-3-(3-Cyano-propionylamino)-7-fluoro-2-hydroxy-3,4-dihydro-2H-benzo[e][1,2]oxaborinine-8-carboxylicacid] | < 100 | C (C represents the MIC in the presence of ≤4 g/mL of a β-lactamase inhibitor) | < 100 | B (B represents the MIC in the presence of between 8 and 32 g/mL of a β-lactamase inhibitor) | < 100 | C (C represents the MIC in the presence of ≤4 g/mL of a β-lactamase inhibitor) | < 100 | C (C represents the MIC in the presence of ≤4 g/mL of a β-lactamase inhibitor) | 100 to 1000 | 
